Consider two molecules from PMC3913857, “Regorafenib in Japanese patients with solid tumors: phase I study of safety, efficacy, and pharmacokinetics” (Investigational New Drugs, 2013).

Molecules are shown by their SMILES. Marks after values point to notes of the source that are not given here.

The series is described as follows: clinical. More on the design: species or system Japanese patients. Particulars: in vivo; for AUC from 0 to 24 h of metabolite as share of regorafenib / t 1/2 (terminal half life) / t max / AUC / AUC0–24 / C max: human. As for the experimental part:
Patients who provided at least one evaluable pharmacokinetic sample were eligible for pharmacokinetic analyses.
Plasma concentrations of regorafenib and its metabolites were determined by fully validated liquid chromatography–tandem mass spectrometry after protein precipitation with acetonitrile/ammonium acetate buffer containing the internal standards [^2H3 ^15N] BAY 73-4506 (for regorafenib), [^2H3 ^15N] […] BAY 81-8752 (for the M5 metabolite).

Turning to `CNC(=O)c1cc(Oc2ccc(NC(=O)Nc3ccc(Cl)c(C(F)(F)F)c3)c(F)c2)cc[n+]1[O-]` [M2], the “AUC from 0 to 24 h of metabolite as share of regorafenib” value turned out to be 47.3%; the “t 1/2 (terminal half life)” value is 29.5 (24.1) h; the t max was 4.3 (0.6–47.9) h; the “Change in t max and t 1/2 between single dosing and 21-day multiple dosing” value is on record as “no significant change”. Besides, where the note is “po, 160 mg”, the AUC is 7,820.6 (301.2) μg.h/L, the “AUC0–24” value is reported as 3,697.2 (340.5) μg.h/L, the C max is listed as 273.3 (388.9) μg/L and the “t 1/2 (terminal half life)” value is 24.8 (27.7) h.

With `NC(=O)c1cc(Oc2ccc(NC(=O)Nc3ccc(Cl)c(C(F)(F)F)c3)c(F)c2)cc[n+]1[O-]` [M5], the “AUC from 0 to 24 h of metabolite as share of regorafenib” value amounted to 21.5%; the “t 1/2 (terminal half life)” value is listed as 57.5 (33.7) h; the t max is 35.6 (0.6–73.2) h; the “Change in t max and t 1/2 between single dosing and 21-day multiple dosing” value is given as “no significant change”. Under “po, 160 mg”, the AUC is given as 3,441.8 (112.0)^a μg.h/L, the “AUC0–24” value is 380.5/164.2 (112.0)^a μg.h/L, the C max was 31.1 (167.3)^a μg/L and the t max was 24.0 (2.8–71.3)^a h.
